From US20210324359A1, “USE OF GRAM-NEGATIVE LYSIN-ANTIMICROBIAL PEPTIDE (AMP) POLYPEPTIDE CONSTRUCTS IN TREATING ENDOCARDITIS” (priority 2020, published 2021)
Like-named read-outs stand apart in the source and are kept apart here.

Experiments:
P. aeruginosa isolates = assay: MIC against a range of isolates in CAA + […] human serum (Table 11); assay type: cell-based, Pseudomonas aeruginosa; settings: Pseudomonas aeruginosa
[1] = tested on: P. aeruginosa isolate CFS 1558 (PA20); assay type: in vivo
Method: A rabbit pulmonary model was used to assess the efficacy of the GN370 lysin alone and in combination with an antibiotic (meropenem). Initially, rabbits were infected intratracheally with P. aeruginosa isolate CFS 1558 (PA20) (3×10^9 CFU). Treatment commenced 6 hours post-infection.

[2] = tested on: 15 P. aeruginosa isolates; assay: MIC of GN370 in dog, human, rabbit and rat serum and CAAT; meropenem in CAMHB (Table 33); assay type: cell-based, Pseudomonas aeruginosa; settings: Pseudomonas aeruginosa, CAMHB
[3] = tested on: carbapenem-resistant P. aeruginosa strains; assay: Resensitization of carbapenem-resistant strains, combinations with imipenem or meropenem (Tables 18-22); assay type: cell-based, Pseudomonas aeruginosa; settings: for MIC: Pseudomonas aeruginosa
[4] = in combination with GN123, isolate PA19
[5] = in combination with GN123, isolate PA20
[6] = in combination with GN123, isolate PA21
[7] = in combination with GN123, isolate PA22
[8] = in combination with GN123, isolate PA23
[9] = in combination with GN123, isolate PA24
[10] = in combination with GN123, isolate WC-452

Question: `C[C@@H](O)[C@H]1C(=O)N2C(C(=O)O)=C(S[C@@H]3CN[C@H](C(=O)N(C)C)C3)[C@H](C)[C@H]12` [Meropenem, meropenem, reference compound] was tested. Which MIC (P. aeruginosa isolates; ATCC17646, read-out: Meropenem MIC, strain CFS 1109 (ATCC 17646)) did it give?
Answer: 0.5 µg/mL

Question: And the MIC (P. aeruginosa isolates; ATCC27853, read-out: Meropenem MIC, strain CFS 1766 (ATCC 27853))?
Answer: 1 µg/mL

Question: What about the MIC (P. aeruginosa isolates; PA1, read-out: Meropenem MIC, strain CFS1539 (PA1)) of the same compound?
Answer: 16 µg/mL

Question: What about the MIC (P. aeruginosa isolates; read-out: Meropenem MIC, strain CFS 1292) of the same compound?
Answer: 32 µg/mL

Question: And the MIC (P. aeruginosa isolates; read-out: Meropenem MIC, strain CFS 1540 (PA2))?
Answer: 16 µg/mL

Question: And the MIC (P. aeruginosa isolates; read-out: Meropenem MIC, strain CFS 1541 (PA3))?
Answer: 8 µg/mL

Question: What about the MIC (P. aeruginosa isolates; read-out: Meropenem MIC, strain CFS 1557 (PA19)) of the same compound?
Answer: 32 µg/mL

Question: And the MIC (P. aeruginosa isolates; read-out: Meropenem MIC, strain CFS 1558 (PA20))?
Answer: 16 µg/mL

Question: What about the MIC (P. aeruginosa isolates; read-out: Meropenem MIC, strain CFS 1559 (PA21)) of the same compound?
Answer: > 32 µg/mL

Question: What about the MIC (P. aeruginosa isolates; read-out: Meropenem MIC, strain CFS 1560 (PA22)) of the same compound?
Answer: 16 µg/mL

Question: And the MIC (P. aeruginosa isolates; read-out: Meropenem MIC, strain CFS 1561 (PA23))?
Answer: 16 µg/mL

Question: What about the MIC (P. aeruginosa isolates; read-out: Meropenem MIC, strain CFS 1562 (PA24)) of the same compound?
Answer: > 32 µg/mL

Question: What about the MIC (P. aeruginosa isolates; read-out: Meropenem MIC, strain CFS 1596 (PA26)) of the same compound?
Answer: 0.5 µg/mL

Question: What about the MIC (P. aeruginosa isolates; read-out: Meropenem MIC, strain CFS 1597 (PA27)) of the same compound?
Answer: 1 µg/mL

Question: What about the MIC (P. aeruginosa isolates; read-out: Meropenem MIC, strain CFS 1669 (PA41)) of the same compound?
Answer: < 0.25 µg/mL

Question: What about the MIC (P. aeruginosa isolates; read-out: Meropenem MIC, strain CFS 1674 (PA46)) of the same compound?
Answer: 4 µg/mL

Question: What about the MIC (P. aeruginosa isolates; read-out: Meropenem MIC, strain CFS 1675 (PA47)) of the same compound?
Answer: 4 µg/mL

Question: What about the “decrease of mean bacterial density in lungs” value ([1]; agent alone, compared to the starting CFU and the vehicle control group) of the same compound?
Answer: about 2 log10 CFU/g

Question: What about the “Bacterial burden, Kidneys” value ([1]; meropenem 20 mg/kg) of the same compound?
Answer: 3.92 ± 0.63 log10 CFU/g

Question: What about the “Bacterial burden, Lung 1” value ([1]; meropenem 20 mg/kg) of the same compound?
Answer: 5.80 ± 0.88 log10 CFU/g

Question: What about the “Bacterial burden, Lung 2” value ([1]; meropenem 20 mg/kg) of the same compound?
Answer: 5.98 ± 1.14 log10 CFU/g

Question: What about the “Bacterial burden, Spleen” value ([1]; meropenem 20 mg/kg) of the same compound?
Answer: 3.62 ± 0.21 log10 CFU/g

Question: What about the “Log10 CFU/g of vegetation” value ([1]; rabbit lung, Meropenem 20 mg/kg) of the same compound?
Answer: 6.12 ± 0.89 Log10 CFU/g

Question: What about the MIC ([2]; ATCC25668, read-out: MIC Meropenem, strain ATCC 25668) of the same compound?
Answer: 2 µg/mL

Question: And the MIC ([2]; ATCC27853, read-out: MIC Meropenem, strain ATCC 27853)?
Answer: 0.5 µg/mL

Question: And the MIC ([2]; PA1, read-out: MIC Meropenem, strain PA1)?
Answer: 32 µg/mL

Question: What about the MIC ([2]; read-out: MIC Meropenem, strain AR0231) of the same compound?
Answer: 128 µg/mL

Question: And the MIC ([2]; read-out: MIC Meropenem, strain AR0241)?
Answer: > 256 µg/mL

Question: And the MIC ([2]; read-out: MIC Meropenem, strain AR0246)?
Answer: 32 µg/mL

Question: And the MIC ([2]; read-out: MIC Meropenem, strain PA2)?
Answer: 16 µg/mL

Question: And the MIC ([2]; read-out: MIC Meropenem, strain PA3)?
Answer: 8 µg/mL

Question: And the MIC ([2]; read-out: MIC Meropenem, strain PA19)?
Answer: 32 µg/mL

Question: And the MIC ([2]; read-out: MIC Meropenem, strain PA20)?
Answer: 32 µg/mL

Question: What about the MIC ([2]; read-out: MIC Meropenem, strain PA22) of the same compound?
Answer: 16 µg/mL

Question: What about the MIC ([2]; read-out: MIC Meropenem, strain PA23) of the same compound?
Answer: 16 µg/mL

Question: What about the MIC ([2]; read-out: MIC Meropenem, strain PA24) of the same compound?
Answer: > 32 µg/mL

Question: And the MIC ([2]; read-out: MIC Meropenem, strain PA27)?
Answer: 1 µg/mL

Question: What about the MIC ([2]; read-out: MIC Meropenem, strain PA453) of the same compound?
Answer: 64 µg/mL

Question: And the MIC ([3]; isolate PA19)?
Answer: 32 µg/mL

Question: What about the MIC ([3]; isolate PA20) of the same compound?
Answer: 16 µg/mL

Question: And the MIC ([3]; isolate PA21)?
Answer: 32 µg/mL

Question: What about the MIC ([3]; isolate PA22) of the same compound?
Answer: 16 µg/mL

Question: And the MIC ([3]; isolate PA23)?
Answer: 16 µg/mL

Question: And the MIC ([3]; isolate PA24)?
Answer: 32 µg/mL

Question: And the MIC ([3]; isolate WC-452)?
Answer: 16 µg/mL

Question: What about the “antibiotic MIC, Combination” value ([3]; in combination with GN121, isolate PA19) of the same compound?
Answer: 1 µg/mL

Question: And the “antibiotic MIC, Combination” value ([3]; in combination with GN121, isolate PA20)?
Answer: 1 µg/mL

Question: What about the “antibiotic MIC, Combination” value ([3]; in combination with GN121, isolate PA21) of the same compound?
Answer: 2 µg/mL

Question: What about the “antibiotic MIC, Combination” value ([3]; in combination with GN121, isolate PA22) of the same compound?
Answer: 1 µg/mL

Question: What about the “antibiotic MIC, Combination” value ([3]; in combination with GN121, isolate PA23) of the same compound?
Answer: 2 µg/mL

Question: And the “antibiotic MIC, Combination” value ([3]; in combination with GN121, isolate PA24)?
Answer: 1 µg/mL

Question: And the “antibiotic MIC, Combination” value ([3]; in combination with GN121, isolate WC-452)?
Answer: 1 µg/mL

Question: And the “antibiotic MIC, Combination” value [3, 4]?
Answer: 0.5 µg/mL

Question: What about the “carbapenem susceptibility class, Combination” value [3, 4] of the same compound?
Answer: (S) ((S) = sensitive)

Question: What about the “antibiotic MIC, Combination” value [3, 5] of the same compound?
Answer: 0.5 µg/mL

Question: And the “carbapenem susceptibility class, Combination” value [3, 5]?
Answer: (S) ((S) = sensitive)

Question: And the “antibiotic MIC, Combination” value [3, 6]?
Answer: 1 µg/mL

Question: What about the “carbapenem susceptibility class, Combination” value [3, 6] of the same compound?
Answer: (S) ((S) = sensitive)

Question: What about the “antibiotic MIC, Combination” value [3, 7] of the same compound?
Answer: 1 µg/mL

Question: What about the “carbapenem susceptibility class, Combination” value [3, 7] of the same compound?
Answer: (S) ((S) = sensitive)

Question: And the “antibiotic MIC, Combination” value [3, 8]?
Answer: 0.5 µg/mL

Question: And the “carbapenem susceptibility class, Combination” value [3, 8]?
Answer: (S) ((S) = sensitive)

Question: What about the “antibiotic MIC, Combination” value [3, 9] of the same compound?
Answer: 2 µg/mL

Question: What about the “carbapenem susceptibility class, Combination” value [3, 9] of the same compound?
Answer: (S) ((S) = sensitive)

Question: What about the “antibiotic MIC, Combination” value [3, 10] of the same compound?
Answer: 1 µg/mL

Question: What about the “carbapenem susceptibility class, Combination” value [3, 10] of the same compound?
Answer: (S) ((S) = sensitive)

Question: And the “carbapenem susceptibility class, Combination” value ([3]; in combination with GN351, vs. WC-452)?
Answer: (S) ((S) = sensitive)

Question: And the “carbapenem susceptibility class, Combination” value ([3]; in combination with GN370, vs. WC-452)?
Answer: (S) ((S) = sensitive)

Question: And the “carbapenem susceptibility class, Combination” value ([3]; in combination with GN428, vs. WC-452)?
Answer: (S) ((S) = sensitive)

Question: What about the “carbapenem susceptibility class, antibiotic Alone” value ([3]; isolate PA19) of the same compound?
Answer: R ((R) = resistant)

Question: What about the “carbapenem susceptibility class, antibiotic Alone” value ([3]; isolate PA20) of the same compound?
Answer: R ((R) = resistant)

Question: And the “carbapenem susceptibility class, antibiotic Alone” value ([3]; isolate PA21)?
Answer: R ((R) = resistant)

Question: And the “carbapenem susceptibility class, antibiotic Alone” value ([3]; isolate PA22)?
Answer: R ((R) = resistant)

Question: What about the “carbapenem susceptibility class, antibiotic Alone” value ([3]; isolate PA23) of the same compound?
Answer: R ((R) = resistant)

Question: And the “carbapenem susceptibility class, antibiotic Alone” value ([3]; isolate PA24)?
Answer: R ((R) = resistant)

Question: What about the “carbapenem susceptibility class, antibiotic Alone” value ([3]; isolate WC-452) of the same compound?
Answer: R ((R) = resistant)

Question: What about the “Antibiotic MIC / Lysin MIC, Alone” value ([3]; vs. WC-452 (Table 22)) of the same compound?
Answer: 16
